In publication PMC10222209 (Pharmaceuticals, 2023):

molecular target: T1, AR-full length (AR-FL) (Homo sapiens, UniProt P10275, T878A); assay: AR downregulation in LNCaP95 cells (automated Western, Wes); conditions: LNCaP95
T1 sequence (P10275 1-920 T878A): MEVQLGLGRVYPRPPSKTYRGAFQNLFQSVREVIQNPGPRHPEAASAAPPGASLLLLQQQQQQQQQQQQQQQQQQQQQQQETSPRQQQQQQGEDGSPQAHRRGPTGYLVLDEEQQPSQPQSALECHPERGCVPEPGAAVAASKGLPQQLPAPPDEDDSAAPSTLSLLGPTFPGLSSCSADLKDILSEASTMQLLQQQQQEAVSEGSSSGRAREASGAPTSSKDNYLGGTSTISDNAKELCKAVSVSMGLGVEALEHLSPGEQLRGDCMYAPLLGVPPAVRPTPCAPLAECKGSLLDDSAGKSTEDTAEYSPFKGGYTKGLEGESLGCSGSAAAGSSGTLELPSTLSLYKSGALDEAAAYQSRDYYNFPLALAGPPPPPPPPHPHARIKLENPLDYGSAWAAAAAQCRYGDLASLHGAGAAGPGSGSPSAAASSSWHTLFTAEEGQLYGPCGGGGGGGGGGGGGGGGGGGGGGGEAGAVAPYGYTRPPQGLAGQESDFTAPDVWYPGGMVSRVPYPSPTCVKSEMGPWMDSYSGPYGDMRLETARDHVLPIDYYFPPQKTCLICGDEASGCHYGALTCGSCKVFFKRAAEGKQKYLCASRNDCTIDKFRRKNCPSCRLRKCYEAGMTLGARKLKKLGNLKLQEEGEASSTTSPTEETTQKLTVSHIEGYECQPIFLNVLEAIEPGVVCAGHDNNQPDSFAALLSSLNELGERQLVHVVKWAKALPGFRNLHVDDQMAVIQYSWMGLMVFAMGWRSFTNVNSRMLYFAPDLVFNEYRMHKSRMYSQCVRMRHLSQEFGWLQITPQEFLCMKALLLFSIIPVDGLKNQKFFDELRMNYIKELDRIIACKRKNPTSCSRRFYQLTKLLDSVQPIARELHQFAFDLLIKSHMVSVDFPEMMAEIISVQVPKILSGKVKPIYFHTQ
Description: (§2) Total AR and AR-V7 protein levels were determined using automated Western blotting (Wes Simple Western Analysis, ProteinSimple, San Jose, CA, USA). WES analyses were performed following the WES user manual. Briefly, LNCaP95 and 22RV1 cells were plated in a 12-well plate at a density of 2.5 × 10^5 cells per well. […] Samples were mixed with a master mix (ProteinSimple, San Jose, CA, USA) to give a final concentration of 0.2 mg/mL total protein, 1 × sample buffer, 1 × fluorescent molecular weight markers, and 40 mM DTT. Samples were heated at 95 °C for 5 min followed by centrifugation. Samples, blocking solution, primary antibodies, horseradish peroxidase-conjugated secondary antibodies, chemiluminescent substrate, and separation and stacking matrices were loaded into designated wells in a 384 well plate. After plate loading, fully automated electrophoresis and immunodetection took place in the capillary system. Proteins were separated by molecular weight at 375 V for 25 min, and primary and secondary antibodies were incubated for 30 min. The AR (Santa Cruz, Santa Cruz, CA, USA), AR-V7 (Santa Cruz, Santa Cruz, CA, USA), and actin (Novus, cat #NB600-503) antibodies were diluted in a proprietary antibody diluent at a 1:50 dilution ratio. Chemiluminescence was captured by a charge-coupled device camera, and the digital image was analyzed using Compass software 6.2.0 (ProteinSimple). The amount of each protein, relative to total protein content, was calculated based on peak areas. Total AR and AR-V7 levels were normalized to actin.

SMILES | downregulating the AR-FL, in words
O=C(Nc1ccc(C(F)(F)F)c(C(F)(F)F)c1)c1cc(Cl)ccc1O [B1] | strong activity
N#Cc1ccc(NC(=O)c2cc(Cl)ccc2O)cc1C(F)(F)F [B3] | strong activity
O=C(Nc1ccc(C(F)(F)F)c(C(F)(F)F)c1)c1cc(F)c(F)cc1O [B14] | strong activity
O=C(Nc1ccc(C(F)(F)F)c(C(F)(F)F)c1)c1cc(F)ccc1O [B9] | strong activity

same assay, conditions: read-out: AR Downregulation IC50; LNCaP95, 24 h treatment

SMILES | DC50
O=C(Nc1ccc(C(F)(F)F)c(C(F)(F)F)c1)c1cc(Cl)ccc1O [B1] | 0.463 ± 0.224 µM
N#Cc1ccc(NC(=O)c2cc(Cl)ccc2O)cc1C(F)(F)F [B3] | 0.781 ± 0.512 µM
O=C(Nc1ccc(C(F)(F)F)c(C(F)(F)F)c1)c1cc(F)c(F)cc1O [B14] | 0.498 ± 0.185 µM
O=C(Nc1ccc(C(F)(F)F)c(C(F)(F)F)c1)c1cc(F)ccc1O [B9] | 0.551 ± 0.173 µM

system: LNCaP95 cells; assay: Antiproliferative assay (resazurin, 72 h) in LNCaP95 cells; assay type: cell-based; conditions: LNCaP-95, 72 h, read-out: IC50 (μM) LNCaP95
Description: (§1) 22Rv1 cells were obtained from ATCC. LNCaP95 cells were provided by Dr. Yan Dong’s laboratory (Tulane University School of Medicine). LNCaP95 cells were maintained in an RPMI1640 medium with charcoal-stripped serum (CSS). 22Rv1 cells were maintained in an RPMI1640 medium with 10% FBS. Cells were seeded in 96-well plates (5 × 10^3 cells/well) containing a 50 μL growth medium for 24 h. After medium removal, a 100 μL fresh medium containing individual compounds at different concentrations was added to each well and incubated at 37 °C for 72 h. Then, 20 μL of resazurin was added for 2 h before recording fluorescence at 560 nm (excitation) and 590 nm (emission) using a Victor microtiter plate fluorometer (Perkin-Elmer, Waltham, MA, USA).

SMILES | IC50
N#Cc1ccc(NC(=O)c2cc(Cl)ccc2O)cc1C(F)(F)F [B3] | 0.354 ± 0.066 µM

same assay, conditions: LNCaP-95; antiproliferation, LNCaP95, 72 h, mean of three independent experiments; read-out: IC50 (μM) LNCaP95

SMILES | IC50
O=C(Nc1ccc(C(F)(F)F)c(C(F)(F)F)c1)c1cc(Cl)ccc1O [B1] | 0.239 ± 0.072 µM
O=C(Nc1ccc(C(F)(F)F)c(C(F)(F)F)c1)c1cc(F)c(F)cc1O [B14] | 0.199 ± 0.055 µM
O=C(Nc1ccc(C(F)(F)F)c(C(F)(F)F)c1)c1cc(F)ccc1O [B9] | 0.13 ± 0.033 µM
O=C(Nc1ccc(C(F)(F)F)c(C(F)(F)F)c1)c1cccc(Cl)c1 [C1] | 0.299 µM
N#Cc1ccc(NC(=O)c2cc(F)ccc2O)c(Cl)c1 [B12] | > 10 µM
O=C(Nc1ccc([N+](=O)[O-])c(F)c1)c1ccc(Cl)cc1O [A5] | 0.937 ± 0.351 µM
N#Cc1ccc(O)c(C(=O)Nc2ccc(C(F)(F)F)c(C(F)(F)F)c2)c1 [B15] | 2.35 ± 0.53 µM
O=C(Nc1ccc(C(F)(F)F)nc1)c1cc(F)ccc1O [B10] | 0.627 ± 0.225 µM

same assay, conditions: LNCaP-95; antiproliferation, approximate value; read-out: IC50 in LNCaP95 (text)

SMILES | IC50
O=C(Nc1ccc(C(F)(F)F)c(C(F)(F)F)c1)c1cc(F)ccc1O [B9] | ~0.1 µM

molecular target: T2, AR-V7 (Homo sapiens, UniProt P10275); assay: AR-V7 downregulation in 22RV1 cells (automated Western, Wes); conditions: read-out: AR-V7 Downregulation IC50; 22RV1, 24 h treatment
T2 sequence (P10275 1-644 isoform P10275-3): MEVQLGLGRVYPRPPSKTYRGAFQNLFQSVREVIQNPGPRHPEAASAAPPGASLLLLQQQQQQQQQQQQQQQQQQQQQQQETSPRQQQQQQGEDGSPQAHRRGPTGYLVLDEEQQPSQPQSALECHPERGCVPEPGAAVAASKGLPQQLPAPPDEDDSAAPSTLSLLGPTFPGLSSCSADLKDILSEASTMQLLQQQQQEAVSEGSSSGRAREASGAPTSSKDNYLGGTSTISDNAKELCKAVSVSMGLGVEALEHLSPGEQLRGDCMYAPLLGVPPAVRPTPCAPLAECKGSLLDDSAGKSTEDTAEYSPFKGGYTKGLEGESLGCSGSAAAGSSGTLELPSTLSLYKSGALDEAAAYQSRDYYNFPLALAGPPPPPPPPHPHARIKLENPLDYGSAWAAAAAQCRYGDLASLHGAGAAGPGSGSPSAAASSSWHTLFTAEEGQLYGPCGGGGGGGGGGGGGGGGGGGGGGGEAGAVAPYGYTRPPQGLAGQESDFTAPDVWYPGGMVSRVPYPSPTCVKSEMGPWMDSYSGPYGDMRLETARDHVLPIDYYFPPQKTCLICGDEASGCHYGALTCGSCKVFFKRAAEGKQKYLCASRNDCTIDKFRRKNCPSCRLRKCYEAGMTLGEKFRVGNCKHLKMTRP
Description: as §2

SMILES | DC50
O=C(Nc1ccc(C(F)(F)F)c(C(F)(F)F)c1)c1cc(Cl)ccc1O [B1] | 4.28 ± 1.36 µM
N#Cc1ccc(NC(=O)c2cc(Cl)ccc2O)cc1C(F)(F)F [B3] | 0.354 ± 0.134 µM
O=C(Nc1ccc(C(F)(F)F)c(C(F)(F)F)c1)c1cc(F)c(F)cc1O [B14] | > 10 µM
O=C(Nc1ccc(C(F)(F)F)c(C(F)(F)F)c1)c1cc(F)ccc1O [B9] | 2.86 ± 0.95 µM

molecular target: T2, AR-V7; assay: AR-V7 downregulation in LNCaP95 cells (automated Western, Wes); conditions: LNCaP95
Description: as §2

SMILES | downregulating the AR-V7, in words
O=C(Nc1ccc(C(F)(F)F)c(C(F)(F)F)c1)c1cc(Cl)ccc1O [B1] | strong activity
N#Cc1ccc(NC(=O)c2cc(Cl)ccc2O)cc1C(F)(F)F [B3] | strong activity
O=C(Nc1ccc(C(F)(F)F)c(C(F)(F)F)c1)c1cc(F)c(F)cc1O [B14] | strong activity
O=C(Nc1ccc(C(F)(F)F)c(C(F)(F)F)c1)c1cc(F)ccc1O [B9] | strong activity

same assay, conditions: read-out: AR-V7 Downregulation IC50; LNCaP95, 24 h treatment

SMILES | DC50
O=C(Nc1ccc(C(F)(F)F)c(C(F)(F)F)c1)c1cc(Cl)ccc1O [B1] | 0.28 ± 0.117 µM
N#Cc1ccc(NC(=O)c2cc(Cl)ccc2O)cc1C(F)(F)F [B3] | 0.85 ± 0.246 µM
O=C(Nc1ccc(C(F)(F)F)c(C(F)(F)F)c1)c1cc(F)c(F)cc1O [B14] | 0.491 ± 0.156 µM
O=C(Nc1ccc(C(F)(F)F)c(C(F)(F)F)c1)c1cc(F)ccc1O [B9] | 0.467 ± 0.204 µM

system: 22RV1 cells; assay: Antiproliferative assay (resazurin, 72 h) in 22RV1 cells; assay type: cell-based; conditions: Homo sapiens, 22Rv1, 72 h, read-out: IC50 (μM) 22RV1
Description: as §1

SMILES | IC50
N#Cc1ccc(NC(=O)c2cc(Cl)ccc2O)cc1C(F)(F)F [B3] | 0.695 ± 0.246 µM

same assay, conditions: Homo sapiens, 22Rv1, read-out: Inhibitory Rate 22RV1 @1.0 μM

SMILES | inhibition at 1 µM
N#Cc1ccc(NC(=O)c2cc(Cl)ccc2O)cc1C(F)(F)F [B3] | 34.9%

same assay, conditions: Homo sapiens, 22Rv1, read-out: Obs pIC50 (converted)

SMILES | IC50
N#Cc1ccc(NC(=O)c2cc(Cl)ccc2O)cc1C(F)(F)F [B3] | 0.695 µM

same assay, conditions: Homo sapiens, 22Rv1; antiproliferation, approximate value; read-out: IC50 in 22RV1 (text)

SMILES | IC50
O=C(Nc1ccc(C(F)(F)F)c(C(F)(F)F)c1)c1cc(F)ccc1O [B9] | ~0.1 µM

same assay, conditions: Homo sapiens; 22RV1, 1.0 μM; read-out: Inhibitory Rate 22RV1 @1.0 μM

SMILES | inhibition at 1 µM
O=C(Nc1ccc(C(F)(F)F)c(C(F)(F)F)c1)c1cc(Cl)ccc1O [B1] | 59.2%
O=C(Nc1ccc(C(F)(F)F)c(C(F)(F)F)c1)c1cc(F)c(F)cc1O [B14] | 47.3%
O=C(Nc1ccc(C(F)(F)F)c(C(F)(F)F)c1)c1cc(F)ccc1O [B9] | 84.3%
O=C(Nc1ccc(C(F)(F)F)c(C(F)(F)F)c1)c1cccc(Cl)c1 [C1] | 53.1%
N#Cc1ccc(NC(=O)c2cc(F)ccc2O)c(Cl)c1 [B12] | 44.3%
O=C(Nc1ccc([N+](=O)[O-])c(F)c1)c1ccc(Cl)cc1O [A5] | 44.2%
N#Cc1ccc(O)c(C(=O)Nc2ccc(C(F)(F)F)c(C(F)(F)F)c2)c1 [B15] | 44.8%
O=C(Nc1ccc(C(F)(F)F)nc1)c1cc(F)ccc1O [B10] | 42.3%

same assay, conditions: Homo sapiens; antiproliferation, 22RV1, 72 h, mean of three independent experiments; read-out: IC50 (μM) 22RV1

SMILES | IC50
O=C(Nc1ccc(C(F)(F)F)c(C(F)(F)F)c1)c1cc(Cl)ccc1O [B1] | 0.258 ± 0.097 µM
O=C(Nc1ccc(C(F)(F)F)c(C(F)(F)F)c1)c1cc(F)c(F)cc1O [B14] | 0.382 ± 0.078 µM
O=C(Nc1ccc(C(F)(F)F)c(C(F)(F)F)c1)c1cc(F)ccc1O [B9] | 0.0997 ± 0.0221 µM
O=C(Nc1ccc(C(F)(F)F)c(C(F)(F)F)c1)c1cccc(Cl)c1 [C1] | 0.32 ± 0.115 µM
N#Cc1ccc(NC(=O)c2cc(F)ccc2O)c(Cl)c1 [B12] | 3.23 ± 1.84 µM
O=C(Nc1ccc([N+](=O)[O-])c(F)c1)c1ccc(Cl)cc1O [A5] | 0.924 ± 0.414 µM
N#Cc1ccc(O)c(C(=O)Nc2ccc(C(F)(F)F)c(C(F)(F)F)c2)c1 [B15] | 1.04 ± 0.26 µM
O=C(Nc1ccc(C(F)(F)F)nc1)c1cc(F)ccc1O [B10] | 0.547 ± 0.153 µM

same assay, conditions: Homo sapiens; observed, −log IC50, 22RV1 antiproliferation; read-out: Obs pIC50 (converted)

SMILES | IC50
O=C(Nc1ccc(C(F)(F)F)c(C(F)(F)F)c1)c1cc(Cl)ccc1O [B1] | 0.258 µM
O=C(Nc1ccc(C(F)(F)F)c(C(F)(F)F)c1)c1cc(F)c(F)cc1O [B14] | 0.382 µM
O=C(Nc1ccc(C(F)(F)F)c(C(F)(F)F)c1)c1cc(F)ccc1O [B9] | 0.0991 µM
O=C(Nc1ccc(C(F)(F)F)c(C(F)(F)F)c1)c1cccc(Cl)c1 [C1] | 0.32 µM
N#Cc1ccc(NC(=O)c2cc(F)ccc2O)c(Cl)c1 [B12] | 3.23 µM
O=C(Nc1ccc([N+](=O)[O-])c(F)c1)c1ccc(Cl)cc1O [A5] | 0.925 µM
N#Cc1ccc(O)c(C(=O)Nc2ccc(C(F)(F)F)c(C(F)(F)F)c2)c1 [B15] | 1.04 µM
O=C(Nc1ccc(C(F)(F)F)nc1)c1cc(F)ccc1O [B10] | 0.547 µM

same assay, conditions: enzalutamide-resistant cell lines LNCaP95 and 22RV1; SAR statements

SMILES | antiproliferative activity, in words
O=C(Nc1ccc(C(F)(F)F)c(C(F)(F)F)c1)c1cc(Cl)ccc1O [B1] | equivalent or improved anti-proliferation potency
O=C(Nc1ccc(C(F)(F)F)c(C(F)(F)F)c1)c1cc(F)ccc1O [B9] | equivalent or improved anti-proliferation potency
O=C(Nc1ccc(C(F)(F)F)c(C(F)(F)F)c1)c1cccc(Cl)c1 [C1] | retained
